Test results published in paper PMC12444507 (ACS Omega, 2025).

What was measured:
[1] = tested on: SARS-CoV-2 strain JPN/TY/WK-521 (SARS-CoV-2^WK-521, ancestral Wuhan strain); details: cited from earlier work
[2] = tested on: SARS-CoV-2^WK-521 infected VeroE6 cells
[3] = tested on: SARS-CoV-2 strain JPN/TY/WK-521 (SARS-CoV-2^WK-521, ancestral Wuhan strain); format: cell-based

## CC(C)(C)[C@H](NC(=O)C(F)(F)F)C(=O)N1C[C@H]2[C@@H]([C@H]1C(=O)N[C@H](C#N)C[C@@H]1CCNC1=O)C2(C)C [nirmatrelvir (1), nirmatrelvir]
[1]
  EC50: 770 ± 180 nM

## CC(C)(C)[C@H](NC(=O)C(F)(F)F)C(=O)N1C[C@H]2[C@@H]([C@H]1C(=O)N[C@@H](C[C@@H]1CCNC1=O)C(=O)c1nc3cc(F)ccc3s1)C2(C)C [TKB272 (8)]
[2]
  cytotoxicity in immunostaining experiments: no significant cytotoxicity
Bacterial mutation
  revertant mutagenicity: no revertant mutagenicity

## CC(C)(C)[C@H](NC(=O)C(F)(F)F)C(=O)N1C[C@H]2[C@@H]([C@H]1C(=O)N[C@@H](C[C@@H]1CCNC1=O)C(=O)c1nc3c(Br)c(F)ccc3s1)C2(C)C [Compound 15]
[3]
  lower potency than TKB272 (8): approximately 3 fold
